# From US5736510A, “Antibiotics 10381v, w, x,y, z1, z2, pre-b and t” (priority 1996, dated 1998)
# Read-outs that look alike come from different tables or passages of the source.
# Experiments:
# Format in all cases: cell-based
# C. perfringens = tested on: C. perfringens; set-up: Minimal Inhibitory Concentration (bioactivity data): unit not given here; conditions: for Minimal Inhibitory Concentration (bioactivity data): Table IV (separate study); for M.I.C.: Table III, mass basis, no correction for purity
# S. faecalis = conditions: for Minimal Inhibitory Concentration (bioactivity data): Table IV (separate study); for M.I.C.: Table III, mass basis, no correction for purity
# S. bovis = conditions: strain JB1; for Minimal Inhibitory Concentration (bioactivity data): Table IV (separate study)
# B. fragilis = conditions: strain UC9370; for Minimal Inhibitory Concentration (bioactivity data): Table IV (separate study)
# B. thetaiotaomicron = conditions: strain UC9014; for Minimal Inhibitory Concentration (bioactivity data): Table IV (separate study)
# Method: (§1) The assay measures the ability of a compound to inhibit the growth of certain types of anaerobic bacteria which normally inhabit the gut of poultry, swine or cattle.
# (§2) Two mg/ml solutions of the drugs to be tested are made in 10% v/v ethanol/water. This stock is then diluted to one mg per ml and then further diluted through a series of ten-two fold dilutions. At each concentration an aliquot is placed in a sterile petri plate. Nine volumes of molten agar are then added to each plate, mixed and allowed to harden at room temperature. These plates are then transferred to a Coy chamber and allowed to dry and equilibrate with the oxygen free atmosphere.
# (§3) Organisms used for MIC testing are inoculated into broth media, and incubated 18-24 h at 39° C. prior to use. The cultures are then diluted to equal the turbidity of a 0.5 MacFarland barium sulfate standard, except for the porcine isolates P108-3C1, P105-1C3 and P105-1C4 which are diluted 1:1. All inoculations and dilutions are performed in the anaerobic chamber using broth media and syringe transfer through the butyl robber stoppers.
# (§4) Freshly prepared and diluted cultures are loaded into the wells of a Steers replicator device. This apparatus can dispense ca 10 μl of each of 32 cultures onto the surface of the preincubated agar plates. One hour after the inoculation, the inoculum will have been absorbed and the plates are inverted and incubated at 38°-39° C. for 48 h. Plates are then removed from the chamber and the MIC for the test compounds determined. MIC's are reported as the lowest concentration of a compound which prevented detectable growth of a test organism on the agar plates. […] Thus, each set of test plates yields individual MIC values for each of the 32 test organisms.
# E. lentum = conditions: strain L-34; Table IV (separate study)
# B. fibrisolvens = conditions: for Minimal Inhibitory Concentration (bioactivity data): Table IV (separate study); for M.I.C.: Table III, mass basis, no correction for purity
# M. elsdenii = conditions: strain B159; for Minimal Inhibitory Concentration (bioactivity data): Table IV (separate study)
# L. multiparus = conditions: strain 40; for Minimal Inhibitory Concentration (bioactivity data): Table IV (separate study)
# S. ruminantium = conditions: for Minimal Inhibitory Concentration (bioactivity data): Table IV (separate study); for M.I.C.: Table III, mass basis, no correction for purity
# R. amylophilus = conditions: strain H18; for Minimal Inhibitory Concentration (bioactivity data): Table IV (separate study)
# R. flavefaciens = conditions: for Minimal Inhibitory Concentration (bioactivity data): Table IV (separate study); for M.I.C.: Table III, mass basis, no correction for purity
# P. ruminicola = conditions: strain 118B; for Minimal Inhibitory Concentration (bioactivity data): Table IV (separate study)
# F. necrophorum = conditions: for Minimal Inhibitory Concentration (bioactivity data): Table IV (separate study); for M.I.C.: Table III, mass basis, no correction for purity
# S. hyodysenteriae = tested on: S. hyodysenteriae; set-up: unit not given here; conditions: Table IV (separate study)
# Method: as §1, §2, §3, §4
# [1] = tested on: anaerobic bacteria which normally inhabit the gut of poultry, swine or cattle; assay: in vitro MIC assay, overall comparison of components across the test organisms; conditions: conclusion from Tables III and IV
# Method: as §1, §2, §3, §4
# E. ruminantium = conditions: strain GA195; for Minimal Inhibitory Concentration (bioactivity data): Table IV (separate study)
# [2] = Table III, mass basis, no correction for purity
smiles,measurement,setting,value
C=C(NC(=O)C(=C)NC(=O)C(=C)NC(=O)c1ccc2c(n1)-c1coc(n1)C(=C)NC(=O)C(=C)NC(=O)c1nc(oc1C)C(=CC)NC(=O)c1csc(n1)CNC(=O)c1nc(oc1C)C(=CC(C)O)NC(=O)C(C(C)O)NC(=O)c1csc-2n1)C(N)=O (stereo not shown) [Antibiotic 10381pre-b],Minimal Inhibitory Concentration (bioactivity data),C. perfringens; strain A82-1,> 100
same,Minimal Inhibitory Concentration (bioactivity data),C. perfringens; strain A83-3,1.6
same,Minimal Inhibitory Concentration (bioactivity data),C. perfringens; strain A83-RKP,1.6
same,Minimal Inhibitory Concentration (bioactivity data),C. perfringens; strain CCS2-09,50.0
same,Minimal Inhibitory Concentration (bioactivity data),C. perfringens; strain P1051C3,> 100
same,Minimal Inhibitory Concentration (bioactivity data),C. perfringens; strain P1083C1,25.0
same,Minimal Inhibitory Concentration (bioactivity data),C. perfringens; strain RF1B04,1.6
same,Minimal Inhibitory Concentration (bioactivity data),C. perfringens; strain UC9452,25.0
same,Minimal Inhibitory Concentration (bioactivity data),S. faecalis; strain 71A01,> 100
same,Minimal Inhibitory Concentration (bioactivity data),S. faecalis; strain CCS1-03,> 100
same,Minimal Inhibitory Concentration (bioactivity data),S. faecalis; strain P1051C4,> 100
same,Minimal Inhibitory Concentration (bioactivity data),S. bovis,50.0
same,Minimal Inhibitory Concentration (bioactivity data),B. fragilis,> 100
same,Minimal Inhibitory Concentration (bioactivity data),B. thetaiotaomicron,> 100
same,Minimal Inhibitory Concentration (bioactivity data),E. lentum,< 0.2
same,Minimal Inhibitory Concentration (bioactivity data),B. fibrisolvens; strain 49,50.0
same,Minimal Inhibitory Concentration (bioactivity data),B. fibrisolvens; strain D1,12.5
same,Minimal Inhibitory Concentration (bioactivity data),M. elsdenii,> 100
same,Minimal Inhibitory Concentration (bioactivity data),L. multiparus,> 100
same,Minimal Inhibitory Concentration (bioactivity data),S. ruminantium; strain GA31,50.0
same,Minimal Inhibitory Concentration (bioactivity data),S. ruminantium; strain GA192,6.3
same,Minimal Inhibitory Concentration (bioactivity data),R. amylophilus,> 100
same,Minimal Inhibitory Concentration (bioactivity data),R. flavefaciens; strain C94,25.0
same,Minimal Inhibitory Concentration (bioactivity data),R. flavefaciens; strain FD1,25.0
same,Minimal Inhibitory Concentration (bioactivity data),P. ruminicola,< 0.2
same,Minimal Inhibitory Concentration (bioactivity data),F. necrophorum; strain FN4070,> 100
same,Minimal Inhibitory Concentration (bioactivity data),F. necrophorum; strain FN5052,> 100
same,Minimal Inhibitory Concentration (bioactivity data),S. hyodysenteriae; strain 16-4,> 100
same,Minimal Inhibitory Concentration (bioactivity data),S. hyodysenteriae; strain B204,> 100
same,in vitro activity ranking of the individual components,[1],considerably less active
C=C(NC(=O)C(=C)NC(=O)C(=C)NC(=O)c1ccc2c(n1)-c1nc(oc1C)C(C)NC(=O)c1csc(n1)C(C)NC(=O)c1nc(oc1C)CNC(=O)C(C(C)C)NC(=O)c1csc-2n1)C(N)=O (stereo not shown) [Antibiotic 10381x],M.I.C.,C. perfringens; strain 71A02,6.3 µg/mL
same,M.I.C.,C. perfringens; strain A82-1,50.0 µg/mL
same,Minimal Inhibitory Concentration (bioactivity data),C. perfringens; strain A82-1,> 100
same,M.I.C.,C. perfringens; strain A83-3,6.3 µg/mL
same,Minimal Inhibitory Concentration (bioactivity data),C. perfringens; strain A83-3,25.0
same,M.I.C.,C. perfringens; strain A83-RKP,1.6 µg/mL
same,Minimal Inhibitory Concentration (bioactivity data),C. perfringens; strain A83-RKP,50.0
same,M.I.C.,C. perfringens; strain CCS1-11,50.0 µg/mL
same,M.I.C.,C. perfringens; strain CCS2-09,1.6 µg/mL
same,Minimal Inhibitory Concentration (bioactivity data),C. perfringens; strain CCS2-09,100
same,M.I.C.,C. perfringens; strain P1051C3,> 100.0 µg/mL
same,Minimal Inhibitory Concentration (bioactivity data),C. perfringens; strain P1051C3,> 100
same,M.I.C.,C. perfringens; strain P1083C1,1.6 µg/mL
same,Minimal Inhibitory Concentration (bioactivity data),C. perfringens; strain P1083C1,100
same,M.I.C.,C. perfringens; strain RF1B04,3.1 µg/mL
same,Minimal Inhibitory Concentration (bioactivity data),C. perfringens; strain RF1B04,50.0
same,M.I.C.,C. perfringens; strain UC9452,6.3 µg/mL
same,Minimal Inhibitory Concentration (bioactivity data),C. perfringens; strain UC9452,50.0
same,M.I.C.,S. faecalis; strain 71A01,100.0 µg/mL
same,Minimal Inhibitory Concentration (bioactivity data),S. faecalis; strain 71A01,> 100
same,M.I.C.,S. faecalis; strain CCS1-03,50.0 µg/mL
same,Minimal Inhibitory Concentration (bioactivity data),S. faecalis; strain CCS1-03,> 100
same,M.I.C.,S. faecalis; strain P1051C4,50.0 µg/mL
same,Minimal Inhibitory Concentration (bioactivity data),S. faecalis; strain P1051C4,> 100
same,M.I.C.,S. bovis; [2],25.0 µg/mL
same,Minimal Inhibitory Concentration (bioactivity data),S. bovis,> 100
same,M.I.C.,B. fragilis; [2],100.0 µg/mL
same,Minimal Inhibitory Concentration (bioactivity data),B. fragilis,> 100
same,M.I.C.,B. thetaiotaomicron; [2],50.0 µg/mL
same,Minimal Inhibitory Concentration (bioactivity data),B. thetaiotaomicron,> 100
same,Minimal Inhibitory Concentration (bioactivity data),E. lentum,< 0.2
same,M.I.C.,B. fibrisolvens; strain 49,1.6 µg/mL
same,Minimal Inhibitory Concentration (bioactivity data),B. fibrisolvens; strain 49,> 100
same,M.I.C.,B. fibrisolvens; strain D1,3.1 µg/mL
same,Minimal Inhibitory Concentration (bioactivity data),B. fibrisolvens; strain D1,100
same,M.I.C.,M. elsdenii; [2],> 100.0 µg/mL
same,Minimal Inhibitory Concentration (bioactivity data),M. elsdenii,> 100
same,M.I.C.,L. multiparus; [2],6.3 µg/mL
same,Minimal Inhibitory Concentration (bioactivity data),L. multiparus,> 100
same,M.I.C.,S. ruminantium; strain GA31,> 100.0 µg/mL
same,Minimal Inhibitory Concentration (bioactivity data),S. ruminantium; strain GA31,6.3
same,M.I.C.,S. ruminantium; strain GA192,> 100.0 µg/mL
same,Minimal Inhibitory Concentration (bioactivity data),S. ruminantium; strain GA192,6.3
same,M.I.C.,R. amylophilus; [2],> 100.0 µg/mL
same,Minimal Inhibitory Concentration (bioactivity data),R. amylophilus,25.0
same,M.I.C.,R. flavefaciens; strain C94,3.1 µg/mL
same,Minimal Inhibitory Concentration (bioactivity data),R. flavefaciens; strain C94,> 100
same,M.I.C.,R. flavefaciens; strain FD1,6.3 µg/mL
same,Minimal Inhibitory Concentration (bioactivity data),R. flavefaciens; strain FD1,100
same,M.I.C.,E. ruminantium; [2],3.1 µg/mL
same,Minimal Inhibitory Concentration (bioactivity data),E. ruminantium,100
same,M.I.C.,P. ruminicola; [2],0.2 µg/mL
same,Minimal Inhibitory Concentration (bioactivity data),P. ruminicola,12.5
same,M.I.C.,F. necrophorum; strain FN4070,> 100.0 µg/mL
same,Minimal Inhibitory Concentration (bioactivity data),F. necrophorum; strain FN4070,> 100
same,M.I.C.,F. necrophorum; strain FN5052,> 100.0 µg/mL
same,Minimal Inhibitory Concentration (bioactivity data),F. necrophorum; strain FN5052,> 100
same,Minimal Inhibitory Concentration (bioactivity data),S. hyodysenteriae; strain 16-4,> 100
same,Minimal Inhibitory Concentration (bioactivity data),S. hyodysenteriae; strain B204,> 100
same,in vitro activity ranking of the individual components,[1],considerably less active
C=C1NC(=O)c2nc(oc2C)C(=CC)NC(=O)c2csc(n2)C(OC)NC(=O)c2nc(oc2C)C(=CC(C)O)NC(=O)C(C(C)O)NC(=O)c2csc(n2)-c2ccc(C(N)=O)nc2-c2coc(n2)C(=C)NC1=O (stereo not shown) [Antibiotic 10381v],Minimal Inhibitory Concentration (bioactivity data),C. perfringens; strain A82-1,> 100
same,Minimal Inhibitory Concentration (bioactivity data),C. perfringens; strain A83-3,0.8
same,Minimal Inhibitory Concentration (bioactivity data),C. perfringens; strain A83-RKP,1.6
same,Minimal Inhibitory Concentration (bioactivity data),C. perfringens; strain CCS2-09,> 100
same,Minimal Inhibitory Concentration (bioactivity data),C. perfringens; strain P1051C3,100
same,Minimal Inhibitory Concentration (bioactivity data),C. perfringens; strain P1083C1,100
same,Minimal Inhibitory Concentration (bioactivity data),C. perfringens; strain RF1B04,0.8
same,Minimal Inhibitory Concentration (bioactivity data),C. perfringens; strain UC9452,6.3
same,Minimal Inhibitory Concentration (bioactivity data),S. faecalis; strain 71A01,> 100
same,Minimal Inhibitory Concentration (bioactivity data),S. faecalis; strain CCS1-03,> 100
same,Minimal Inhibitory Concentration (bioactivity data),S. faecalis; strain P1051C4,> 100
same,Minimal Inhibitory Concentration (bioactivity data),S. bovis,> 100
same,Minimal Inhibitory Concentration (bioactivity data),B. fragilis,> 100
same,Minimal Inhibitory Concentration (bioactivity data),B. thetaiotaomicron,> 100
same,Minimal Inhibitory Concentration (bioactivity data),E. lentum,25.0
same,Minimal Inhibitory Concentration (bioactivity data),B. fibrisolvens; strain 49,50.0
same,Minimal Inhibitory Concentration (bioactivity data),B. fibrisolvens; strain D1,25.0
same,Minimal Inhibitory Concentration (bioactivity data),M. elsdenii,> 100
same,Minimal Inhibitory Concentration (bioactivity data),L. multiparus,> 100
same,Minimal Inhibitory Concentration (bioactivity data),S. ruminantium; strain GA31,25.0
same,Minimal Inhibitory Concentration (bioactivity data),S. ruminantium; strain GA192,100
same,Minimal Inhibitory Concentration (bioactivity data),R. amylophilus,3.1
same,Minimal Inhibitory Concentration (bioactivity data),R. flavefaciens; strain C94,25.0
same,Minimal Inhibitory Concentration (bioactivity data),R. flavefaciens; strain FD1,25.0
same,Minimal Inhibitory Concentration (bioactivity data),E. ruminantium,12.5
same,Minimal Inhibitory Concentration (bioactivity data),P. ruminicola,< 0.2
same,Minimal Inhibitory Concentration (bioactivity data),F. necrophorum; strain FN4070,100
same,Minimal Inhibitory Concentration (bioactivity data),F. necrophorum; strain FN5052,> 100
same,Minimal Inhibitory Concentration (bioactivity data),S. hyodysenteriae; strain 16-4,> 100
same,Minimal Inhibitory Concentration (bioactivity data),S. hyodysenteriae; strain B204,> 100
same,in vitro activity ranking of the individual components,[1],considerably less active
